Experimental data reported in US9278069B2, “Nanoclusters compositions and methods” (UNIVERSITY OF KANSAS, priority 2005, dated 2016).

How the values were obtained:
Solubility = assay type: physicochemical
[1] = Cascade impaction of diatrizoic acid dry powder and nebulized suspension; assay type: physicochemical; settings: flow rate ~30 L/min
Description: FDA requires characterization of aerosols using cascade impaction, which determines aerosol particle size; indicative of the probable deposition site in the lung. The nanoparticle agglomerate formulation described above was studied using a Tisch Ambient Cascade Impactor. The study was carried out by applying ˜20 mg powder manually into the orifice of the instrument at an air flow rate of […]. Alternatively, the dry powders were suspended in water and applied into the cascade impactor through a nebulizer equipped with an LC Star atomizer. […] Cut-off particle aerodynamic diameters at 30 L/min for each stage of the impactor were: pre-separator (10.00 μm), stage 0 (9.00 μm), stage 1 (5.8 μm), stage 2 (4.7 μm), stage 3 (3.3 μm), stage 4 (2.1 μm), stage 5 (1.1 μm), stage 6 (0.7 μm), stage 7 (0.4 μm) and filter (0 μm). Diatrizoic acid nanoparticle agglomerates deposited on each stage of the impactor were determined by measuring the difference in weight of filters placed on the stages. The percent emitted fraction (% EF) and fine particle fractions of the total dose (FPFTD) were then calculated. In addition, the mass median aerodynamic diameter, MMAD, and geometric standard deviation, GSD, were obtained by a linear fit of the cumulative percent less-than the particle size range by weight plotted on a probability scale as a function of the logarithm of the effective cut-off diameter.

[2] = Cascade impaction of paclitaxel nanoparticle agglomerates (Tisch Ambient Cascade Impactor); assay type: physicochemical
Description: Aerodynamic characteristics of selected nanoparticle agglomerates were studied in vitro using a Tisch Ambient Cascade Impactor (Tisch Environmental, Inc., Ohio). The study was carried out by applying ˜20 mg powder manually into the orifice of the instrument at an air flow rate of ˜30 L/min. Cut-off particle aerodynamic diameters for each stage of the impactor were: pre-separator ([…]), stage 0 ([…]), stage 1 (5.8 mm), stage 2 (4.7 mm), stage 3 (3.3 mm), stage 4 (2.1 mm), stage 5 (1.1 mm), stage 6 (0.7 mm), stage 7 (0.4 mm) and filter (0 mm). Nanoparticle agglomerates deposited on each stage of the impactor were determined by measuring the difference in weight of filters placed on the stages. The mass median aerodynamic diameter, MMAD, and geometric standard deviation, GSD, were obtained by a linear fit of the cumulative percent less-than the particle size range by weight plotted on a probability scale as a function of the logarithm of the effective cut-off diameter.

[3] = Dissolution of insulin particles in PBS (pH 7.4); assay type: physicochemical; settings: PBS pH 7.4, 37 °C, FIG. 38
Description: Approximately 6 mg of each insulin particle sample was suspended in PBS (pH 7.4). The solution was placed in a 100,000 Dalton biotech grade cellulose ester dialysis tube (Spectrum Labs, Rancho Dominiguez, Calif.) and placed in PBS solution to a final volume of 45 mL. All samples were incubated at 37° C. and shaken at 50 rpm on a shaker table. 1 mL aliquots were taken at various time points up to 8 hours from the bulk solution and replaced with 1 mL of fresh PBS. The insulin concentration was measured using a Coomassie Plus colorimetric protein quantification assay (Thermo Fisher Scientific, Waltham, Mass.). A calibration curve was used to correlate the insulin concentration with the measured absorbance, with insulin concentrations ranging between 1 and 25 μg/mL used as the standard. Dissolved mass was calculated from the measured concentration, and was then normalized to the total loaded mass to determine the percent dissolved. All experiments were performed in triplicate. Analysis of variance (ANOVA) was used to determine statistically significant differences between groups (p<0.05). Comparisons among groups were done using a Fisher's F-test.

[4] = Aerodynamic diameter by time-of-flight measurement (Aerosizer LD); assay type: physicochemical; settings: insulin powders
Description: (§1) The aerodynamic size distributions of the agglomerate powders were measured directly from lyophilized powder by time-of-flight measurement using an Aerosizer LD (Amherst Instruments) equipped with a 700 mm aperture operating at 6 psi.
as §1, with “The particle size of the dispersed nanoparticle agglomerates as well as the resuspended lyophilized powder was measured using a Coulter Multisizer 3. The” for “The”, “μm” for “mm”
The aerodynamic diameters of the lyophilized powders were determined using an Aerosizer LD (Amherst Process Instruments Inc.). Data were collected over ˜70 seconds under high shear force (˜3.4 kPa) using a 700 μm nozzle.
The particle size was determined from the lyophilized powder using particle time-of-flight analysis. The particle mass mean aerodynamic diameter indentified using this analytical method was 1.0±0.1 μm, which is an ideal particle size for accessing the lung periphery.
Aerodynamic size distribution of the lyophilized powder was obtained by analyzing the time of flight measurements from an Aerosizer LD (Amherst Instruments) equipped with a 700 μm and operating 4 psi. […]

[5] = Dispersion stability of budesonide in model propellant HPFP; assay type: physicochemical; settings: dispersed in HPFP
Description: A trial run for determining the feasibility of budesonide nanoclusters as Metered Dose Inhaler formulations was performed. Budesonide nanoclusters and pure budesonide (milled) were dispersed in model propellant HPFP (2H, 3H perfluoropentane) and their dispersion stability was analyzed. HPFP has similar physico-chemical properties to MDI propellants such as […]. Previous literature studies indicate that dispersion stability of therapeutic molecules is similar in both HPFP and HFA227ea.

[6] = almost all organic solvent; cited from earlier work
A549 cells = assay: Cytotoxicity of budesonide formulations, CellTiter 96 MTS assay; assay type: cell-based; settings: up to 5 mg/mL, end of 12 hours
Description: In this experiment, 8×10^4 A549 cells/well were seeded in 96-well microtiter plates. At the end of the incubation period (12 h), […] of MTS reagent solution was added to each well and incubated for 3 hours at 37° C. The absorbance was measured at 490 nm using a microtiter plate reader (SpectraMax, M25, Molecular Devices Corp., CA). The percentage of viable cells with all tested concentrations was calculated relative to untreated cells.

For `[H]/N=C(/N)N[C@H]1[C@H](O)[C@@H](O)[C@H](O[C@@H]2O[C@@H](C)[C@](O)(C=O)[C@H]2O[C@@H]2O[C@@H](CO)[C@H](O)[C@@H](O)[C@@H]2NC)[C@@H](N/C(N)=N\[H])[C@@H]1O` [streptomycin, Streptomycin], the “solubility in acetone and ethanol” value (Solubility) was “poorly soluble” and the solubility in water (Solubility) was “freely water soluble”.
In the case of `CC(=O)Nc1c(I)c(NC(C)=O)c(I)c(C(=O)O)c1I` [Diatrizoic acid (powder), Diatrizoic acid], the “% EF (percent emitted fraction)” value [1] is reported as 70 ± 1%, the “% FPF (fine particle fraction) <3.3” value [1] is reported as 4 ± 2^ % and the “% FPF (fine particle fraction) <5.7” value [1] is reported as 21 ± 2%. For the same compound, the “GSD (geometric standard deviation)” value [1] was 2 ± 0.1 and the “MMAD (mass median aerodynamic diameter obtained from cascade impactor)” value [1] was 9 ± 0.1.
For `CC(=O)Nc1c(I)c(NC(C)=O)c(I)c(C(=O)O)c1I` [Diatrizoic acid (suspen.), Diatrizoic acid], the “% EF (percent emitted fraction)” value [1] was 75 ± 5%, the “% FPF (fine particle fraction) <3.3” value [1] was 10 ± 7% and the “% FPF (fine particle fraction) <5.7” value [1] was 33 ± 6%. For the same compound, the “GSD (geometric standard deviation)” value [1] was 2 ± 0.1 and the “MMAD (mass median aerodynamic diameter obtained from cascade impactor)” value [1] was 7 ± 1.
With `CC(=O)O[C@H]1C(=O)[C@@]2(C)[C@H]([C@H](OC(=O)c3ccccc3)[C@]3(O)C[C@H](OC(=O)[C@H](O)[C@@H](NC(=O)c4ccccc4)c4ccccc4)C(C)=C1C3(C)C)[C@]1(OC(C)=O)CO[C@@H]1C[C@@H]2O` [Pure paclitaxel powder, Paclitaxel] the “GSD (geometric standard deviation)” value ([2]; cascade impactor, ~30 L/min) was 2.2 ± 0.03, the “MMAD (mass median aerodynamic diameter)” value ([2]; cascade impactor, ~30 L/min) was 0.08 ± 0.02 and the “% RF (percent respirable fraction) <3.3” value ([2]; flow rate ~30 L/min) was 0%. The “% RF (percent respirable fraction) <5.7” value ([2]; flow rate ~30 L/min) was 0.39 ± 0.3% and the “% EF (percent emitted fraction)” value ([2]; lyophilized NA, flow rate ~30 L/min) was 68.3 ± 6.1%.
For “Unprocessed: Lyophilized insulin powder from bovine pancreas (0.5% zinc content)”, the insulin dissolution behaviour [3] was “follows Higuchi dissolution kinetics” and the daero [4] was 4.117 ± 1.852 μm.
With `CCCC1O[C@@H]2C[C@H]3[C@@H]4CCC5=CC(=O)C=C[C@]5(C)[C@H]4[C@@H](O)C[C@]3(C)[C@]2(C(=O)CO)O1` (some centres unmarked) [milled budesonide, Budesonide] the “dispersion stability (creaming)” value [5] was “clearly visible layer was seen at 1 hr” and the “dispersion stability (creaming)” value ([5]; listed as jet milled budesonide) was “complete creaming”.
For `CO[C@H]1/C=C/O[C@@]2(C)Oc3c(C)c(O)c4c(O)c(c(/C=N/N5CCN(C)CC5)c(O)c4c3C2=O)NC(=O)/C(C)=C\C=C\[C@H](C)[C@H](O)[C@@H](C)[C@@H](O)[C@@H](C)[C@H](OC(C)=O)[C@@H]1C` [Rifampicin], the “solubility in organic solvent” value [6] is given as “freely soluble”.
For `CCCC1O[C@@H]2C[C@H]3[C@@H]4CCC5=CC(=O)C=C[C@]5(C)[C@H]4[C@@H](O)C[C@]3(C)[C@]2(C(=O)CO)O1` (some centres unmarked) [Stock budesonide, Budesonide], the cytotoxicity (A549 cells) was “did not show any significant cytotoxicity”.
